According to the supplement of paper PMC10307832:

What was measured:
Assay in all cases: relative viability (nuclei count vs DMSO), 5 days (fraction); higher = more cells survive
[1] = test system: 201T
Summary of the method: (§1)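 Nuclei were stained with Hoechst during a one-step fixation (final 0.05% Triton X-100, 1% formaldehyde, 1 ug/ml Hoechst) carried out 5 days after dosing, then counted on 4× images. The cells, lung cancer lines in 1536-well plates, had been dosed by pin tool the day after seeding with one drug alone or a fixed anchor-drug dose plus five library-drug doses (not always all listed) in √10 steps. Relative viability is the nuclei count in treated wells divided by that in vehicle wells, and each value is the median of duplicate plates.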

[2] = test system: ABC-1
Summary of the method: as §1

[3] = test system: EMC-BAC-2
Summary of the method: as §1

[4] = test system: EPLC-272H
Summary of the method: as §1

[5] = test system: HCC-78
Summary of the method: as §1

[6] = test system: LOU-NH91
Summary of the method: as §1

[7] = test system: NCI-H1395
Summary of the method: as §1

[8] = test system: NCI-H1437
Summary of the method: as §1

[9] = test system: NCI-H1651
Summary of the method: as §1

[10] = test system: NCI-H1734
Summary of the method: as §1

[11] = test system: NCI-H1792
Summary of the method: as §1

[12] = test system: NCI-H1793
Summary of the method: as §1

[13] = test system: NCI-H1915
Summary of the method: as §1

[14] = test system: NCI-H1975
Summary of the method: as §1

[15] = test system: NCI-H2023
Summary of the method: as §1

[16] = test system: NCI-H23
Summary of the method: as §1

[17] = test system: NCI-H2405
Summary of the method: as §1

[18] = test system: NCI-H647
Summary of the method: as §1

[19] = test system: NCI-H661
Summary of the method: as §1

[20] = test system: RERF-LC-KJ
Summary of the method: as §1

[21] = test system: SK-LU-1
Summary of the method: as §1

[22] = test system: UMC-11
Summary of the method: as §1

Compound `O=c1[nH]c2ccccc2n1C1CCN(CCCC(c2ccc(F)cc2)c2ccc(F)cc2)CC1` [Pimozide] + CS(=O)(=O)CCNCc1ccc(-c2ccc3ncnc(Nc4ccc(OCc5cccc(F)c5)c(Cl)c4)c3c2)o1 [Lapatinib] (partner 2 µM) has a relative viability ([1]; first compound 0.08 µM) of 1.01, a relative viability ([1]; first compound 0.253 µM) of 1.05 and a relative viability ([1]; first compound 0.8 µM) of 1.01. It also gave a relative viability ([1]; first compound 2.53 µM) of 0.995, a relative viability ([1]; first compound 8 µM) of 0.926 and a relative viability ([2]; first compound 0.08 µM) of 1.18. For the same compound, the relative viability ([2]; first compound 0.253 µM) was 0.951, the relative viability ([2]; first compound 0.8 µM) was 1.13 and the relative viability ([2]; first compound 2.53 µM) was 1.16. It also gave a relative viability ([2]; first compound 8 µM) of 1.22, a relative viability ([3]; first compound 0.08 µM) of 0.865 and a relative viability ([3]; first compound 0.253 µM) of 0.832. The relative viability ([3]; first compound 0.8 µM) was 0.843, the relative viability ([3]; first compound 2.53 µM) was 0.885 and the relative viability ([3]; first compound 8 µM) was 0.868. It also gave a relative viability ([4]; first compound 0.08 µM) of 0.819, a relative viability ([4]; first compound 0.253 µM) of 0.945 and a relative viability ([4]; first compound 0.8 µM) of 0.716. It also gave a relative viability ([4]; first compound 2.53 µM) of 0.809, a relative viability ([4]; first compound 8 µM) of 0.689 and a relative viability ([5]; first compound 0.08 µM) of 0.484. It also gave a relative viability ([5]; first compound 0.253 µM) of 0.831, a relative viability ([5]; first compound 0.8 µM) of 0.54 and a relative viability ([5]; first compound 2.53 µM) of 0.608. For the same compound, the relative viability ([5]; first compound 8 µM) was 0.889, the relative viability ([6]; first compound 0.08 µM) was 0.736 and the relative viability ([6]; first compound 0.253 µM) was 0.694. The relative viability ([6]; first compound 0.8 µM) was 0.751, the relative viability ([6]; first compound 2.53 µM) was 0.833 and the relative viability ([6]; first compound 8 µM) was 0.785. For the same compound, the relative viability ([7]; first compound 0.08 µM) was 0.966, the relative viability ([7]; first compound 0.253 µM) was 1.17 and the relative viability ([7]; first compound 0.8 µM) was 1.06. For the same compound, the relative viability ([7]; first compound 2.53 µM) was 0.756, the relative viability ([7]; first compound 8 µM) was 0.838 and the relative viability ([8]; first compound 0.08 µM) was 0.858. It also gave a relative viability ([8]; first compound 0.253 µM) of 0.849, a relative viability ([8]; first compound 0.8 µM) of 0.801 and a relative viability ([8]; first compound 2.53 µM) of 0.636. It also gave a relative viability ([8]; first compound 8 µM) of 0.539, a relative viability ([9]; first compound 0.08 µM) of 0.967 and a relative viability ([9]; first compound 0.253 µM) of 0.734. It also gave a relative viability ([9]; first compound 0.8 µM) of 0.934, a relative viability ([9]; first compound 2.53 µM) of 0.809 and a relative viability ([9]; first compound 8 µM) of 0.746. For the same compound, the relative viability ([10]; first compound 0.08 µM) was 1.04, the relative viability ([10]; first compound 0.253 µM) was 1.07 and the relative viability ([10]; first compound 0.8 µM) was 0.978. It also gave a relative viability ([10]; first compound 2.53 µM) of 0.96, a relative viability ([10]; first compound 8 µM) of 0.671 and a relative viability ([11]; first compound 0.08 µM) of 0.888. For the same compound, the relative viability ([11]; first compound 0.253 µM) was 0.784, the relative viability ([11]; first compound 0.8 µM) was 0.83 and the relative viability ([11]; first compound 2.53 µM) was 0.846. The relative viability ([11]; first compound 8 µM) was 0.869, the relative viability ([12]; first compound 0.08 µM) was 0.785 and the relative viability ([12]; first compound 0.253 µM) was 0.641. For the same compound, the relative viability ([12]; first compound 0.8 µM) was 0.593, the relative viability ([12]; first compound 2.53 µM) was 0.481 and the relative viability ([12]; first compound 8 µM) was 0.654. The relative viability ([13]; first compound 0.08 µM) was 1.03, the relative viability ([13]; first compound 0.253 µM) was 0.927 and the relative viability ([13]; first compound 0.8 µM) was 0.585. It also gave a relative viability ([13]; first compound 2.53 µM) of 0.947, a relative viability ([13]; first compound 8 µM) of 0.926 and a relative viability ([14]; first compound 0.08 µM) of 0.928. For the same compound, the relative viability ([14]; first compound 0.253 µM) was 0.848, the relative viability ([14]; first compound 0.8 µM) was 0.945 and the relative viability ([14]; first compound 2.53 µM) was 0.897. For the same compound, the relative viability ([14]; first compound 8 µM) was 0.751, the relative viability ([15]; first compound 0.08 µM) was 0.793 and the relative viability ([15]; first compound 0.253 µM) was 0.964. The relative viability ([15]; first compound 0.8 µM) was 0.592, the relative viability ([15]; first compound 2.53 µM) was 0.729 and the relative viability ([15]; first compound 8 µM) was 0.412. It also gave a relative viability ([16]; first compound 0.08 µM) of 0.938, a relative viability ([16]; first compound 0.253 µM) of 1.01 and a relative viability ([16]; first compound 0.8 µM) of 1.06. The relative viability ([16]; first compound 2.53 µM) was 0.847, the relative viability ([16]; first compound 8 µM) was 0.922 and the relative viability ([17]; first compound 0.08 µM) was 1.02. It also gave a relative viability ([17]; first compound 0.253 µM) of 0.833, a relative viability ([17]; first compound 0.8 µM) of 0.984 and a relative viability ([17]; first compound 2.53 µM) of 1.04. The relative viability ([17]; first compound 8 µM) was 0.79, the relative viability ([18]; first compound 0.08 µM) was 1.18 and the relative viability ([18]; first compound 0.253 µM) was 1.03. It also gave a relative viability ([18]; first compound 0.8 µM) of 0.973, a relative viability ([18]; first compound 2.53 µM) of 0.964 and a relative viability ([18]; first compound 8 µM) of 0.58. It also gave a relative viability ([19]; first compound 0.08 µM) of 0.46, a relative viability ([19]; first compound 0.253 µM) of 0.464 and a relative viability ([19]; first compound 0.8 µM) of 0.451. The relative viability ([19]; first compound 2.53 µM) was 0.413, the relative viability ([19]; first compound 8 µM) was 0.467 and the relative viability ([20]; first compound 0.08 µM) was 0.885. The relative viability ([20]; first compound 0.253 µM) was 0.801, the relative viability ([20]; first compound 0.8 µM) was 0.776 and the relative viability ([20]; first compound 2.53 µM) was 0.784. It also gave a relative viability ([20]; first compound 8 µM) of 0.742, a relative viability ([21]; first compound 0.08 µM) of 0.773 and a relative viability ([21]; first compound 0.253 µM) of 0.846. The relative viability ([21]; first compound 0.8 µM) was 0.859, the relative viability ([21]; first compound 2.53 µM) was 0.826 and the relative viability ([21]; first compound 8 µM) was 0.731. For the same compound, the relative viability ([22]; first compound 0.08 µM) was 1.07, the relative viability ([22]; first compound 0.253 µM) was 0.957 and the relative viability ([22]; first compound 0.8 µM) was 0.821. For the same compound, the relative viability ([22]; first compound 2.53 µM) was 0.934 and the relative viability ([22]; first compound 8 µM) was 0.56.
